Measurements as given in patent US11628199B2, “Medicine for combined use in cancer treatment” (SICHUAN JIUZHANG BIOLOGICAL SCIENCE AND TECHNOLOGY CO., LTD, priority 2017, dated 2023).
Where a SMILES comes first, the peptide text is derived from it. [ ]: non-standard residue; d: D form. The star is where a group is joined. dPhe(4-NHCONH2) = NC(=O)Nc1ccc(C[C@@H](N)C(=O)O)cc1; Dihydroorotyl(S) = O=C1C[C@@H](C(=O)*)NC(=O)N1; dPhe(4-Cl) = N[C@H](Cc1ccc(Cl)cc1)C(=O)O; Phe(4-NH2) = Nc1ccc(C[C@H](N)C(=O)O)cc1; d2Nal = N[C@H](Cc1ccc2ccccc2c1)C(=O)O; Lys(iPr) = CC(C)NCCCC[C@H](N)C(=O)O; NMeY = CN[C@@H](Cc1ccc(O)cc1)C(=O)O; d3Pal = N[C@H](Cc1cccnc1)C(=O)O

Key:
[1] = system: RM-1 mouse prostate cancer cell lines; assay: In vivo mouse xenograft tumor of RM-1 prostate cancer, chlorogenic acid combined with abarelix or degarelix
Method: Test drug: chlorogenic acid, abarelix, degarelix.
Test cell lines: RM-1 mouse prostate cancer cell lines.
(§1) Cells in exponential phase of growth were taken out, digested with trypsin to […], and then cell suspension was prepared by addition of saline.
When the tumor volume in the negative group was about 0.5 cm^3, the experiment was stopped. The mice were sacrificed by cervical dislocation and weighed. The tumors were removed and weighed to calculate the tumor inhibitory rate.

[2] = system: drug-resistant RM-1 mouse prostate cancer cell lines (abarelix-induced); assay: In vivo mouse xenograft tumor of drug-resistant RM-1 prostate cancer, chlorogenic acid combined with abarelix; settings: for Tumor weight: x ± s; for inhibitory rate of mouse xenograft tumor of drug-resistant RM-1 prostate cancer (in words): groups and doses as in Table 3
Method: Test drug: chlorogenic acid, abarelix.
Test cell lines: RM-1 mouse prostate cancer cell lines. RM-1 cell lines were induced by increasing concentration gradient of aberlix and established by clone and screen. Prior to experiment, cell lines were cultured without drug.
Test animals: Kunming mice, ♂, weight 17-24 g.
Drug-resistant cell lines after removal of drug were adjusted to the concentration of 1×10^7/mL with culture medium, and inoculated under the right anterior armpit of mice at 0.1 ml/mouse.
After the mean diameter of tumor reached 100 mm^3, mice were divided into 4 groups, i.e. abarelix group, chlorogenic acid+abarelix group, chlorogenic acid group, and the negative control group, respectively.
Abarelix group: intraperitoneal injection, once every seven days, 15 mg/kg, two doses in total.
chlorogenic acid+abarelix group: chlorogenic acid was intraperitoneally injected, once every day, 10 mg/kg, continuous administration for 5 days; After withdrawal of chlorogenic acid, abarelix was intraperitoneally injected on the next day, once every 7 days, 15 mg/kg, two doses in total.
Chlorogenic acid group: intraperitoneal injection, once every day, 10 mg/kg, continuous administration for 5 days; after that, saline was intraperitoneally injected, once every day, continuing 10 days.
Negative control group: intraperitoneal injection of saline, once every day, continuing 15 days.
After completion of administration, the experiment was stopped, and mice were sacrificed by cervical dislocation and weighed. The tumors were removed and weighed to calculate the tumor inhibitory rate.

[3] = system: EMT-6 mouse breast cancer cell lines; assay: In vivo mouse xenograft tumor of EMT-6 breast cancer, chlorogenic acid combined with fulvestrant
Method: Test drug: chlorogenic acid, fulvestrant.
Test cell lines: EMT-6 mouse breast cancer cell lines.
as §1
Fulvestrant group received drug once by intraperitoneal injection on the next day after inoculation; chlorogenic acid group received drug once every day by intraperitoneal injection from the next day after inoculation, and the drug was successively administrated 15 times; combined medicine group received intraperitoneal injection of fulvestrant once on the next day after inoculation, and intraperitoneal injection of chlorogenic acid once every day from the next day after inoculation; the negative control group received saline by intraperitoneal injection once every day from the next day after inoculation, and saline was continuously given 15 times. When the tumor volume in the negative group was about 0.5 cm^3, the experiment was stopped. The mice were sacrificed by cervical dislocation and weighed. The tumors were removed and weighed to calculate the tumor suppression rate.
(2) If both drugs are combined, Q=E(a+b)/(Ea+Eb−Ea×Eb), in which E(a+b) is the inhibition rate for the combination of two drugs, i.e. the tested combined effect; Ea and Eb is respectively the inhibition rates of two drugs when they are separately used; the denominator (Ea+Eb−Ea×Eb) is the expected combined effect.

[4] = abarelix 15 mg·kg^−1 i.p. once every seven days, two doses
[5] = degarelix 30 mg·kg^−1 s.c. once
[6] = fulvestrant 40 mg·kg^−1 i.p. once
[7] = chlorogenic acid 10 mg·kg^−1 i.p. once daily, 15 times
[8] = chlorogenic acid 20 mg·kg^−1 i.p. once daily, 15 times
[9] = chlorogenic acid 40 mg·kg^−1 i.p. once daily, 15 times

## CC(=O)N[C@H](Cc1ccc2ccccc2c1)C(=O)N[C@H](Cc1ccc(Cl)cc1)C(=O)N[C@H](Cc1cccnc1)C(=O)N[C@@H](CO)C(=O)N(C)[C@@H](Cc1ccc(O)cc1)C(=O)N[C@H](CC(N)=O)C(=O)N[C@@H](CC(C)C)C(=O)N[C@@H](CCCCNC(C)C)C(=O)N1CCC[C@H]1C(=O)N[C@H](C)C(N)=O [Abarelix, abarelix] (Ac-[d2Nal][dPhe(4-Cl)][d3Pal]S[NMeY][dN]L[Lys(iPr)]P[dA]-NH2)
[1]; abarelix 15 mg·kg^−1 i.p. once
  Tumor inhibitory rate: 42.73%
  Tumor weight: 0.886 ± 0.521 g
[2]; [4]
  Tumor inhibitory rate: 4.84%
  Tumor weight: 2.339 ± 0.614 g
[2]
  inhibitory rate of mouse xenograft tumor of drug-resistant RM-1 prostate cancer (in words): weaker, without obvious suppression effect

## CC(=O)N[C@H](Cc1ccc2ccccc2c1)C(=O)N[C@H](Cc1ccc(Cl)cc1)C(=O)N[C@H](Cc1cccnc1)C(=O)N[C@@H](CO)C(=O)N[C@@H](Cc1ccc(NC(=O)[C@@H]2CC(=O)NC(=O)N2)cc1)C(=O)N[C@H](Cc1ccc(NC(N)=O)cc1)C(=O)N[C@@H](CC(C)C)C(=O)N[C@@H](CCCCNC(C)C)C(=O)N1CCC[C@H]1C(=O)N[C@H](C)C(N)=O [Degarelix, degarelix] (Ac-[d2Nal][dPhe(4-Cl)][d3Pal]S[Phe(4-NH2)](Dihydroorotyl(S))[dPhe(4-NHCONH2)]L[Lys(iPr)]P[dA]-NH2)
[1]; [5]
  Tumor inhibitory rate: 50.61%
  Tumor weight: 0.764 ± 0.218 g

## C[C@]12CC[C@@H]3c4ccc(O)cc4C[C@@H](CCCCCCCCC[S+]([O-])CCCC(F)(F)C(F)(F)F)[C@H]3[C@@H]1CC[C@@H]2O (stereo partly drawn) [Fulvestrant, fulvestrant]
[3]; [6]
  Tumor inhibitory rate: 43.40%
  Tumor weight: 0.746 ± 0.311 g

## O=C(/C=C/c1ccc(O)c(O)c1)O[C@@H]1C[C@](O)(C(=O)O)C[C@@H](O)[C@H]1O [chlorogenic acid, 3-o-caffeoylquinic acid]
[3]; [7]
  Tumor inhibitory rate: 31.94%
[3]; chlorogenic acid 10 mg·kg^−1 i.p. once daily, 15 times, BALB/C-nu mice
  Tumor weight: 0.897 ± 0.346 g
[3]; [8]
  Tumor inhibitory rate: 36.95%
[3]; chlorogenic acid 20 mg·kg^−1 i.p. once daily, 15 times, BALB/C-nu mice
  Tumor weight: 0.831 ± 0.221 g
[3]; [9]
  Tumor inhibitory rate: 42.03%
[3]; chlorogenic acid 40 mg·kg^−1 i.p. once daily, 15 times, BALB/C-nu mice
  Tumor weight: 0.764 ± 0.539 g
[1]; [7]
  Tumor inhibitory rate: 24.05%
[1]; chlorogenic acid 10 mg·kg^−1 i.p. once daily, 15 times, Kunming mice
  Tumor weight: 1.175 ± 0.117 g
[1]; [8]
  Tumor inhibitory rate: 27.86%
[1]; chlorogenic acid 20 mg·kg^−1 i.p. once daily, 15 times, Kunming mice
  Tumor weight: 1.116 ± 0.358 g
[1]; [9]
  Tumor inhibitory rate: 28.57%
[1]; chlorogenic acid 40 mg·kg^−1 i.p. once daily, 15 times, Kunming mice
  Tumor weight: 1.105 ± 0.641 g
[2]; chlorogenic acid 10 mg·kg^−1 i.p. once daily for 5 days
  Tumor inhibitory rate: 8.41%
[2]; chlorogenic acid 10 mg·kg^−1 i.p. once daily for 5 days, then saline 10 days
  Tumor weight: 2.251 ± 0.581 g
[2]
  inhibitory rate of mouse xenograft tumor of drug-resistant RM-1 prostate cancer (in words): weaker, without obvious suppression effect
